Experiments:
HyuA = test: Substrate specificity of HyuA: racemization of 5-substituted hydantoins by ORD polarimetry; assay type: biochemical, Arthrobacter aurescens DSM 3747; conditions: substrate conc. 0.9 mM; 100% racemase activity corresponds to 313 μ/mg by standard assay
Method: Racemization of the 5-substituted hydantoins BH, IMH and MTEH by HyuA was examined (Tab. 2).
Enzyme assays. Racemization of L-BH was measured by ORD-polarimerty (Model 341, Perkin Elmer Bodenseewerk, Überlingen, Germany) at a wavelength of 295 nm in the standard assay for racemase enzyme activity. 3 MM L-BH was dissolved in 0.1 M Tris, pH 3 at 45° C. in an ultrasonic waterbath, cooled to room temperature and the pH adjusted to pH 8.5 with 3 M NaOH. To 1 ml substrate solution 0.1 ml enzyme, diluted in 0.1 M Tris, pH 8.5, was added and the change in optical rotation determined at 37° C. by polarimetry (Teves et al., Fresenius' J. Anal. Chem. 1999, 363, 738-743). The racemization of MTEH and IMH by. HyuA was determined at substrate concentrations of 0.9 mM and recorded by ORD at 253 nm and 334 nm. The specific activities were calculated from initial reaction rates which were determined according to Teves et al. (1999). For determination of enzyme activity by HPLC, 1 mM L-IMH was dissolved as described above. The mixture containing 900 μl enzyme solution was incubated 5 min at 37° C. The reaction was stopped by addition of 400 μl 14% trichloroacetic acid and centrifugation in an Eppendorf centrifuge at full speed. 100 μl of the sample were diluted with 0.9 ml 0.1 M TrisHCl, pH 8.5, and D-IMH and L-IMH in the supernatant were separated by HPLC (Thermoseparation Products, Darmstadt, Germany) by injection of 20 μl sample into a Chiralpak WH-column (0.46×25 cm; Daicel Chemicals Industris LTD, Griesheim, Germany). The column was equilibrated with 0.25 mM CuSO4, pH 5.5. The flow rate was 1 ml/min at 50° C. and IMH detected at 254 nm. The chemical racemization of the substrate was taken into account. Racemization of […] substrate per minute was defined as one unit enzyme.

racemase HyuA = test: Initial velocities at different concentrations of L-MTEH (kinetic plot); assay type: biochemical, Arthrobacter aurescens DSM 3747; conditions: FIG. 6
Method: The KM values of IMH and BH could not be determined due to the limited solubility of the substrates. Instead the initial velocities at different concentrations of L-MTEH were measured. […] Even at low substrate concentrations (>5 mM) inhibition is observed.
Enzyme assays. Racemization of L-BH was measured by ORD-polarimerty (Model 341, Perkin Elmer Bodenseewerk, Überlingen, Germany) at a wavelength of 295 nm in the standard assay for racemase enzyme activity. 3 MM L-BH was dissolved in 0.1 M Tris, pH 3 at 45° C. in an ultrasonic waterbath, cooled to room temperature and the pH adjusted to pH 8.5 with 3 M NaOH. To 1 ml substrate solution 0.1 ml enzyme, diluted in 0.1 M Tris, pH 8.5, was added and the change in optical rotation determined at 37° C. by polarimetry (Teves et al., Fresenius' J. Anal. Chem. 1999, 363, 738-743). The racemization of MTEH and IMH by. HyuA was determined at substrate concentrations of 0.9 mM and recorded by ORD at 253 nm and 334 nm. The specific activities were calculated from initial reaction rates which were determined according to Teves et al. (1999). For determination of enzyme activity by HPLC, 1 mM L-IMH was dissolved as described above. The mixture containing 900 μl enzyme solution was incubated 5 min at 37° C. […] The flow rate was 1 ml/min at 50° C. and IMH detected at 254 nm. […]

[1] = room temperature, pH 8.5, 20 hour; cited from earlier work

| Structure (SMILES) | Relative Activity (HyuA) [%] | substrate concentration at which inhibition of the racemase is observed (racemase HyuA) [mM] | fraction racemized to D-IMH (chemical racemization) [1] |
| --- | --- | --- | --- |
| CSCCC1NC(=O)NC1=O [D-MTEH] | 8 | – | – |
| CSCCC1NC(=O)NC1=O [L-MTEH] | 7 | > 5 | – |
| O=C1NC(=O)[C@H](Cc2c[nH]c3ccccc23)N1 [L-IMH] | 13 | – | about 10% |
| O=C1NC(=O)[C@@H](Cc2ccccc2)N1 [D-BH, D-Benzylhydantoin] | 95 | – | – |
| O=C1NC(=O)[C@@H](Cc2c[nH]c3ccccc23)N1 [D-IMH] | 12 | – | – |
